# Test results published in patent US10640492B2, “Tubulin inhibitor” (SHENZHEN NEPTUNUS PHARMACEUTICAL RESEARCH INSTITUTE CO., …, priority 2016, dated 2020).
# pIC50: −log10 of the molar value.
# Key:
# [1] = test system: blood flow distribution in tissues and tumor tissue; experiment: Blood flow distribution of tissues and tumor; assay type: in vivo, nude mice; conditions: two hours after administration, same pharmacodynamic dose, vs blank vehicle
# Description: In this example, the effects of drugs on blood flow distribution of different tissues and organs at the same pharmacodynamic dose were simultaneously tested.
# tubulin in HuVEC cells = experiment: Action on microtubule function, α-tubulin staining in HuVEC; assay type: cell-based, human; conditions: 2 μM, 30 minutes, vs DMSO control
# Description: Human umbilical vein endothelial cells (HuVEC from Cambrex) were used in this study.
# [2] = CCK-8 cytotoxicity IC50, HUVEC; conditions: human, HUVEC umbilical vein endothelial cells
# Protocol: HUVEC human umbilical vein endothelial cell strain (purchased from ScienCell Research Laboratories, Cat #8000, Lot #11233)
# (§1) a) The compound was serially diluted with DMSO starting from 0.5 μM, using twice echelon dilution.
# (§2) The logarithmic growth phase cells were collected and counted. The cells were re-suspended in complete medium, whose concentration was adjusted according to the test results of the cell density optimization, and then seeded into 96-well plates with 100 μl of the cell suspension to each well. The cells were incubated in a 37° C., 100% relative humidity, 5% CO2 incubator for 24 hours.
# (§3) b) The test compound was diluted with the medium to the corresponding action concentrations set up, and added into the cells in the plates at 25 μl/well. The test compound was prepared in 9 final action concentrations, which were obtained by sequentially diluted from 500 nM using twice echelon dilution.
# (§4) c) The cells were incubated in a 37° C., 100% relative humidity, 5% CO2 incubator for 72 hours.
# (§5) d) The medium was removed from the cells, and a complete medium containing 10% CCK-8 was added and incubated in a 37° C. incubator for 1-4 hours.
# (§6) e) After gentle shaking, the absorbance at 450 nm of the sample was measured on a SpectraMax M5 Microplate Reader, and the inhibition ratio was calculated using the absorbance at 650 nm as reference.
# (§7) The inhibition ratio of the drug on tumor cell growth was calculated as follows: tumor cell growth inhibition %=[(Ac−As)/(Ac−Ab)]×100%
# (§8) The IC50 curve was fitted and the IC50 value was calculated using the software Graphpad Prism 5 and using the calculation formula log(inhibitor) vs. normalized response-variable slope or log(inhibitor) vs. response-variable slope.
# [3] = test system: MDA-MB-231 human breast cancer cell strain; experiment: CCK-8 cytotoxicity IC50, MDA-MB-231; conditions: MDA-MB-231, 72 h, read-out: cytotoxicity IC50
# Protocol: (§9) To test the cytotoxic IC50 values of 14 candidate compounds against 5 cell strains (MDA-MB-231, HT-1080, AGS, A-673 & HUVEC) using a CCK-8 test kit.
# MDA-MB-231 human breast cancer cell strain (purchased from Shanghai Cell Resource Center, Chinese Academy of Sciences)
# as §1, §2, §3, §4, §5, §6, §7, §8
# [4] = test system: HT-1080 human fibrosarcoma cell strain; experiment: CCK-8 cytotoxicity IC50, HT-1080; conditions: HT-1080, 72 h, read-out: cytotoxicity IC50
# Protocol: as §9, §1, §2, §3, §4, §5, §6, §7, §8
# [5] = test system: A-673 human rhabdomyosarcoma cell strain; experiment: CCK-8 cytotoxicity IC50, A-673; conditions: A673, 72 h, read-out: cytotoxicity IC50
# Protocol: as §9, §1, §2, §3, §4, §5, §6, §7, §8
# [6] = test system: AGS human gastric adenocarcinoma cell strain; experiment: CCK-8 cytotoxicity IC50, AGS; conditions: 72 h, read-out: cytotoxicity IC50
# Protocol: AGS human gastric adenocarcinoma cell strain (purchased from Shanghai Cell Resource Center, Chinese Academy of Sciences)
# as §1, §2, §3, §4, §5, §6, §7, §8
# neutrophil count = experiment: Effect on the neutrophil count at equivalent pharmacodynamic dose; conditions: rats, continuous administration for two weeks (FIG. 3)
# Description: Multiple doses of different drugs were administrated to the nude mice respectively and the potency of the drugs in inhibiting the transplanted tumor in the nude mice was investigated. Base on the investigation, the equivalent dose of each drug was identified and converted to rat dose before administrated to the rats. That is, by administrating the rats with relatively equivalent pharmacodynamic dose, the effect of the drugs on the neutrophil count was examined. After continuously administration for two weeks, blood samples were collected and neutrophil counts were measured (FIG. 3).
# [7] = test system: drug-resistant MES-SA cells (p-glycoprotein induced); experiment: Inhibitory effect on tumor proliferation, drug-resistant MES-SA transplanted tumor; assay type: in vivo; conditions: drug-resistant MES-SA nude mice, dose that does not reduce body weight, vs blank vehicle (FIG. 1)
# Protocol: MES-SA cells (derived from ATCC) were cultured in low concentration of adriamycin for a long time to maintain sufficient cell viability and induced the expression of p-glycoprotein. After culturing for 10 months, the results of induced expression were detected by WB. After successful induction, the cells were cultured for one week in adriamycin-free medium. The tumor cells with adjusted concentration were inoculated into the armpit of nude mice. The transplanted tumors were treated with different drugs when they grew to a certain volume. Different doses of different drugs were administrated to blank mice to explore the drug dose not affecting the body weight of the animals, namely the dose to be administrated to treat the animals with transplanted tumors.
# [8] = test system: tumor cells inoculated in nude mice
# Protocol: The nude mice inoculated with tumor cells were administrated with blank vehicle, docetaxel, compound 17 as well as the combination drug of docetaxel and compound 17. The tumor volume was measured at different time period after the administration and the change of tumor volume was evaluated. At the same time, the change of body weight of the nude mice was examined to evaluate the antitumor effect and the toxicity degree of the drug. In addition, based on the above administration and grouping methods, the blood neutrophil count level for normal SD rats was measured before administration and after the final administration to evaluate the influence of the drug on neutrophil counts.
# [9] = Stability investigation (10-day accelerated stress testing)
# Protocol: The tested conditions included 40° C., 60° C., humidity 75%, humidity 92.5%, and light. And under each condition, moisture, purity, maximum single impurity and total impurity of the compound tested were compared to that of day 0.
# blood neutrophil count = experiment: Neutrophil count after compound 17 in combination with docetaxel; assay type: in vivo; conditions: normal SD rats, after final administration (FIG. 2C)
# [10] = Day 10, sample 1 (no stress condition given)
compound,measurement,setting,value
CC(C)(C)c1nc[nH]c1/C=c1\[nH]c(=O)/c(=C/C=C/c2cccc(F)c2)[nH]c1=O [Compound 7],distribution of blood flow in tissues except tumor tissues,[1],did not significantly affect the distribution of blood flow in tissues except tumor tissues
same,intratumoral blood flow distribution,[1],can significantly reduce the intratumoral blood flow distribution
same,cell membrane blebbing,tubulin in HuVEC cells,induced
same,microtubule depolymerization,tubulin in HuVEC cells,induced
same,IC50 at 72 h,[2],94.9 nM
same,pIC50,[3],7.40
same,pIC50,[4],7.36
same,pIC50,[5],7.45
same,pIC50,[6],7.37
same,neutrophil count,neutrophil count,had no obvious effect on neutrophils
same,anti-tumor proliferation effect (tumor weight),[7],can effectively exert anti-tumor proliferation effects
CC(C)(C)c1[nH]cnc1/C=c1\[nH]c(=O)/c(=C/C=C/c2ccc(OC(F)(F)F)cc2)[nH]c1=O [Compound 10],distribution of blood flow in tissues except tumor tissues,[1],did not significantly affect the distribution of blood flow in tissues except tumor tissues
same,intratumoral blood flow distribution,[1],can significantly reduce the intratumoral blood flow distribution
same,cell membrane blebbing,tubulin in HuVEC cells,induced
same,microtubule depolymerization,tubulin in HuVEC cells,induced
same,IC50 at 72 h,[2],363 nM
same,pIC50,[3],6.98
same,pIC50,[4],6.65
same,pIC50,[5],6.78
same,pIC50,[6],7.02
same,neutrophil count,neutrophil count,had no obvious effect on neutrophils
same,anti-tumor proliferation effect (tumor weight),[7],can effectively exert anti-tumor proliferation effects
COc1ccc(/C=C/C=c2\[nH]c(=O)/c(=C/c3nc[nH]c3C(C)(C)C)[nH]c2=O)cc1 [Compound 12],distribution of blood flow in tissues except tumor tissues,[1],did not significantly affect the distribution of blood flow in tissues except tumor tissues
same,intratumoral blood flow distribution,[1],can significantly reduce the intratumoral blood flow distribution
same,cell membrane blebbing,tubulin in HuVEC cells,induced
same,microtubule depolymerization,tubulin in HuVEC cells,induced
same,IC50 at 72 h,[2],43.1 nM
same,pIC50,[3],7.34
same,pIC50,[4],6.86
same,pIC50,[5],7.43
same,pIC50,[6],7.45
same,neutrophil count,neutrophil count,had no obvious effect on neutrophils
same,anti-tumor proliferation effect (tumor weight),[7],can effectively exert anti-tumor proliferation effects
CC(C)(C)c1[nH]cnc1/C=c1\[nH]c(=O)/c(=C/C=C/c2cccc(C#N)c2)[nH]c1=O [Compound 15],distribution of blood flow in tissues except tumor tissues,[1],did not significantly affect the distribution of blood flow in tissues except tumor tissues
same,intratumoral blood flow distribution,[1],can significantly reduce the intratumoral blood flow distribution
same,cell membrane blebbing,tubulin in HuVEC cells,induced
same,microtubule depolymerization,tubulin in HuVEC cells,induced
same,IC50 at 72 h,[2],78.6 nM
same,pIC50,[3],6.91
same,pIC50,[4],7.10
same,pIC50,[5],7.02
same,pIC50,[6],7.20
same,neutrophil count,neutrophil count,had no obvious effect on neutrophils
same,anti-tumor proliferation effect (tumor weight),[7],can effectively exert anti-tumor proliferation effects
CC(C)(C)c1[nH]cnc1/C=c1\[nH]c(=O)/c(=C/C=C/c2cc(F)ccc2Cl)[nH]c1=O [Compound 17],distribution of blood flow in tissues except tumor tissues,[1],did not significantly affect the distribution of blood flow in tissues except tumor tissues
same,intratumoral blood flow distribution,[1],can significantly reduce the intratumoral blood flow distribution
same,cell membrane blebbing,tubulin in HuVEC cells,induced
same,microtubule depolymerization,tubulin in HuVEC cells,induced
same,IC50 at 72 h,[2],35 nM
same,pIC50,[3],7.69
same,pIC50,[4],7.84
same,inhibition of tumor proliferation (tumor volume),[8]; nude mice inoculated with tumor cells (FIG. 2A),can effectively inhibit the proliferation of tumor in vivo
same,pIC50,[5],8.14
same,pIC50,[6],7.97
same,neutrophil count,neutrophil count,had no obvious effect on neutrophils
same,anti-tumor proliferation effect (tumor weight),[7],can effectively exert anti-tumor proliferation effects
same,"stability, overall finding","[9]; 10-day accelerated test: 40° C., 60° C., humidity 75%, humidity 92.5%, light",stable
same,Content,[9]; Day 0,99.8%
same,Maximum single impurity,[9]; Day 0,0.03 (RRT: 0.31) %
same,Moisture,[9]; Day 0,0.1%
same,Total impurity,[9]; Day 0,0.06%
same,Content,"[9]; Day 5, 40° C.",100.9%
same,Maximum single impurity,"[9]; Day 5, 40° C.",0.02 (RRT: 0.31) %
same,Moisture,"[9]; Day 5, 40° C.",0.1%
same,Total impurity,"[9]; Day 5, 40° C.",0.05%
same,Content,"[9]; Day 5, 60° C.",99.0%
same,Maximum single impurity,"[9]; Day 5, 60° C.",0.03 (RRT: 0.31) %
same,Moisture,"[9]; Day 5, 60° C.",0.2%
same,Total impurity,"[9]; Day 5, 60° C.",0.06%
same,Content,"[9]; Day 5, humidity 75%",99.5%
same,Maximum single impurity,"[9]; Day 5, humidity 75%",0.02 (RRT: 0.32) %
same,Moisture,"[9]; Day 5, humidity 75%",0.2%
same,Total impurity,"[9]; Day 5, humidity 75%",0.07%
same,Content,"[9]; Day 5, humidity 92.5%",99.5%
same,Maximum single impurity,"[9]; Day 5, humidity 92.5%",0.02 (RRT: 0.31) %
same,Moisture,"[9]; Day 5, humidity 92.5%",0.3%
same,Total impurity,"[9]; Day 5, humidity 92.5%",0.07%
same,Content,"[9]; Day 5, light",100.3%
same,Maximum single impurity,"[9]; Day 5, light",0.04 (RRT: 0.31) %
same,Moisture,"[9]; Day 5, light",0.1%
same,Total impurity,"[9]; Day 5, light",0.07%
same,Content,"[9]; Day 10, 40° C.",100.5%
same,Maximum single impurity,"[9]; Day 10, 40° C.",0.04 (RRT: 0.31) %
same,Moisture,"[9]; Day 10, 40° C.",0.1%
same,Total impurity,"[9]; Day 10, 40° C.",0.07%
same,Content,"[9]; Day 10, 60° C.",99.7%
same,Maximum single impurity,"[9]; Day 10, 60° C.",0.03 (RRT: 0.31) %
same,Moisture,"[9]; Day 10, 60° C.",0.2%
same,Total impurity,"[9]; Day 10, 60° C.",0.08%
same,Content,"[9]; Day 10, humidity 75%",99.0%
same,Maximum single impurity,"[9]; Day 10, humidity 75%",0.04 (RRT: 0.31) %
same,Moisture,"[9]; Day 10, humidity 75%",0.2%
same,Total impurity,"[9]; Day 10, humidity 75%",0.11%
same,Content,"[9]; Day 10, humidity 92.5%",99.4%
same,Maximum single impurity,"[9]; Day 10, humidity 92.5%",0.03 (RRT: 0.31) %
same,Moisture,"[9]; Day 10, humidity 92.5%",0.3%
same,Total impurity,"[9]; Day 10, humidity 92.5%",0.08%
same,Content,"[9]; Day 10, light",99.6%
same,Maximum single impurity,"[9]; Day 10, light",0.04 (RRT: 0.31) %
same,Moisture,"[9]; Day 10, light",0.1%
same,Total impurity,"[9]; Day 10, light",0.09%
same,Content,[9]; [10],100.4%
same,Maximum single impurity,[9]; [10],0.03 (RRT: 0.31) %
same,Moisture,[9]; [10],0.1%
same,Total impurity,[9]; [10],0.08%
"CC(=O)O[C@H]1C(=O)[C@@]2(C)[C@H]([C@H](OC(=O)c3ccccc3)[C@]3(O)C[C@H](OC(=O)[C@H](O)[C@@H](NC(=O)c4ccccc4)c4ccccc4)C(C)=C1C3(C)C)[C@]1(OC(C)=O)CO[C@@H]1C[C@@H]2O [Paclitaxel, paclitaxel, reference compound]",microtubule depolymerization,tubulin in HuVEC cells,did not induce microtubule depolymerization
"CC(=O)O[C@@]12CO[C@@H]1C[C@H](O)[C@@]1(C)C(=O)[C@H](O)C3=C(C)[C@@H](OC(=O)[C@H](O)[C@@H](NC(=O)OC(C)(C)C)c4ccccc4)C[C@@](O)([C@@H](OC(=O)c4ccccc4)[C@H]21)C3(C)C [docetaxel, reference compound]",blood neutrophil count,blood neutrophil count,neutrophil count decrease caused by docetaxel
same,change of body weight (toxicity),"[8]; mouse, in vivo",weight loss of animals caused by the toxicity of docetaxel
same,neutrophil count,neutrophil count,can significantly reduce the neutrophil count
same,anti-tumor proliferation effect (tumor weight),[7],relatively poor pharmacodynamic effect
"CC(C)(C)c1[nH]cnc1/C=C1\NC(=O)[C@H](Cc2ccccc2)NC1=O [tert-butyl-phenylahistin, reference compound]",cell membrane blebbing,tubulin in HuVEC cells,induced
same,microtubule depolymerization,tubulin in HuVEC cells,induced
